Results published in patent publication US20240245617A1, “LIPID-BASED TOPICAL INJECTION FORMULATIONS” (Beijing Jitai Pharmaceutical Technology Co., Ltd., priority 2022, published 2024).

Tested on: C57BL/6 mice
Assay: In vivo bioluminescence after intravenous administration of lipid nanoparticles encapsulating luciferase mRNA
Conditions: 0.5 mg/kg mRNA, liver
Description: The delivery effect and safety of nanoparticles encapsulating luciferase mRNA (Trilink, L-7202) in mice were evaluated. The test mice were SPF-grade C57BL/6 mice, female, 6-8 weeks old, weighing 18-22 g, and were purchased from SPF (Beijing) Biotechnology Co., Ltd. All animals were acclimatized for more than 7 days prior to the experiment, and had free access to food and water during the experiment. The conditions include alternating light and dark for 12/12 h, the indoor temperature of 20-26° C. and the humidity of 40-70%. The mice were randomly grouped. The lipid nanoparticles encapsulating luciferase mRNA prepared above were injected into mice by intravenous administration at a single dose of 0.5 mg/kg mRNA, and the mice were subjected to in vivo bioluminescence assay using a Small Animal In Vivo Imaging System (IVIS LUMINA III, purchased from PerkinElmer) at 6 h after administration. The assay was performed as follows: D-luciferin solution was prepared in saline at a concentration of 15 mg/mL, and each mouse was given the substrate by intraperitoneal injection. At ten minutes after administration of the substrate, the mice were anesthetized in an anesthesia chamber with isoflurane at a concentration of 2.5%. […] Data acquisition and analysis were performed on the liver.
The in vivo delivery efficiency of lipid nanoparticle carriers was expressed as the mean values of fluorescence intensity and total photon count in different animals within the same subject group, as shown in Table 4. Higher values of fluorescence intensity and total photon count indicate higher in vivo delivery efficiency of this mRNA fragment by lipid nanoparticles. The lipid nanoparticles containing the cationic lipids of the present disclosure have good in vivo delivery efficiency and mainly target the liver.

| Structure (SMILES) | Total photon count in vivo at 6 hours after administration (Total Flux) |
| --- | --- |
| CCCCCCCCCSC(=O)C(C)(C)CCCCCC(CCCCCC(C)(C)C(=O)SCCCCCCCCC)OC(=O)CCCN(C)C [Compound 37] | 7.88E+09 |
| CCCCCCCCCCSC(=O)C(C)(C)CCCCCC(CCCCCC(C)(C)C(=O)OCCCCCCCCC)OC(=O)CCCN(C)C (stereo not drawn) [Compound 40] | 4.22E+09 |
| CCCCCCCCCOC(=O)C(C)(C)CCCCCC(CCCCCC(C)(C)C(=O)SCCCCCCCCC)OC(=O)CCCN(C)C (stereo not drawn) [Compound 41] | 2.19E+10 |
| CCCCCCC#CCOC(=O)C(C)(C)CCCCCC(CCCCCC(C)(C)C(=O)OCCCCCCCCC)OC(=O)CCCN(C)C (stereo not drawn) [Compound 42] | 5.32E+09 |
| CCCCCCCCCOC(=O)C(C)(C)CCCCCC(CCCCCC(C)(C)C(=O)OCC(CCCCC)CCCCCCC)OC(=O)CCCN(C)C (stereo not drawn) [Compound 46] | >4.00E+10 |
| CCCCCCCCCCOC(=O)C(C)(C)CCCCCC(CCCCCC(C)(C)C(=O)OCCCCCCCCCC)OC(=O)CCN1CCOCC1 [Compound 90] | 1.04E+07 |
| CCCCCCCCCCOC(=O)C(C)(C)CCCCCC(CCCCCC(C)(C)C(=O)OCCCCCCCCCC)OC(=O)CN1CCOCC1 [Compound 91] | 1.29E+06 |
| CCCCCCCCCCOC(=O)C(C)(C)CCCCCC(CCCCCC(C)(C)C(=O)OCCCCCCCCCC)OC(=O)CCN1CCCC1 [Compound 92] | 2.13E+09 |
| CCCCCCC/C=C\COC(=O)CC(C)(C)CCCCC(CCCCC(C)(C)CC(=O)OCC(CCCCC)CCCCCCC)OC(=O)CCCN(C)C (stereo not drawn) [Compound 98] | 2.12E+10 |
| CCCCCCCCOC(=O)C(C)(C)CCCCCC(CCCCCC(C)(C)C(=O)OCCCCCCCC)OC(=O)C1CCN(C)CC1 [Compound 100] | 1.18E+10 |
| CCCCCCCCOC(=O)C(C)(C)CCCCCC(CCCCCC(C)(C)C(=O)OCCCCCCCC)OC(=O)C1CCN(C(C)C)CC1 [Compound 101] | 5.19E+09 |
| CCCCCCCCCOC(=O)C(C)(C)CCCCCC(CCCCCC(C)(C)C(=O)OCCCCCCCCC)OC(=O)C1CCN(C)CC1 [Compound 102] | 2.03E+10 |
| CCCCCCCCCOC(=O)C(C)(C)CCCCCC(CCCCCC(C)(C)C(=O)OCCCCCCCCC)OC(=O)C1CCN(C(C)C)CC1 [Compound 103] | 5.69E+09 |
| CCCCCCCCCCSC(=O)C(C)(C)CCCCCC(CCCCCC(C)(C)C(=O)SCCCCCCCCCC)OC(=O)C1CCN(C)CC1 [Compound 104] | 2.61E+10 |
| CCCCCCCCCCSC(=O)C(C)(C)CCCCCC(CCCCCC(C)(C)C(=O)SCCCCCCCCCC)OC(=O)C1CCN(C(C)C)CC1 [Compound 105] | 3.33E+09 |
| CCCCCCCCCSC(=O)C(C)(C)CCCCCC(CCCCCC(C)(C)C(=O)SCCCCCCCCC)OC(=O)C1CCN(C)CC1 [Compound 106] | 1.85E+10 |
| CCCCCCCCCSC(=O)C(C)(C)CCCCCC(CCCCCC(C)(C)C(=O)SCCCCCCCCC)OC(=O)C1CCN(C(C)C)CC1 [Compound 107] | 1.36E+10 |

| Structure (SMILES) | Total photon count in vivo at 6 hours after administration (Total Flux) |
| --- | --- |
| CCCCCCCCCSC(=O)C(C)(C)CCCCCC(CCCCCC(C)(C)C(=O)SCCCCCCCCC)OC(=O)CC1CCN(C)CC1 [Compound 108] | 1.21E+10 |
| CCCCCCCCCSC(=O)C(C)(C)CCCCCC(CCCCCC(C)(C)C(=O)SCCCCCCCCC)OC(=O)CC1CCN(CC)CC1 [Compound 109] | 1.32E+10 |
| CCCCCCCCCOC(=O)C(C)(C)CCCCCC(CCCCCC(C)(C)C(=O)OCC(CCCCC)CCCCCCC)OC(=O)CC1CCN(C)CC1 (stereo not drawn) [Compound 111] | 1.79E+10 |
| CCCCCCCCCSC(=O)C(C)(C)CCCCCC(CCCCCC(C)(C)C(=O)OCC(CCCCC)CCCCCCC)OC(=O)CC1CCN(C)CC1 (stereo not drawn) [Compound 112] | 3.53E+10 |
| CCCCCCCC#CCOC(=O)C(C)(C)CCCCCC(CCCCCC(C)(C)C(=O)OCCCC(CCCCC)CCCCC)OC(=O)CCCN(C)C (stereo not drawn) [Compound 115] | 2.56E+10 |
| CCCCCCCC#CCOC(=O)C(C)(C)CCCCCC(CCCCCC(C)(C)C(=O)OCC(CCCCC)CCCCCCC)OC(=O)CCCN(C)C (stereo not drawn) [Compound 116] | >4.00E+10 |
| CCCCC(CC#CCOC(=O)C(C)(C)CCCCCC(CCCCCC(C)(C)C(=O)OCC#CCC(CCCC)CCCC)OC(=O)CCCN(C)C)CCCC [Compound 117] | 4.48E+09 |
| CCCCCCCCCOC(=O)C(C)(C)CCCCCC(CCCCCC(C)(C)C(=O)OCC#CC(CCCCCC)CCCCCC)OC(=O)CCCN(C)C (stereo not drawn) [Compound 118] | 3.14E+10 |
| CCCCCCCCCOC(=O)C(C)(C)CCCCC(CCCCC(C)(C)C(=O)OCC(CCCCC)CCCCCCC)OC(=O)CCCN(C)C (stereo not drawn) [Compound 122] | >4.00E+10 |
| CCCCCCCCCCOC(=O)C(C)(C)CCCCC(CCCCC(C)(C)C(=O)OCC(CCCCC)CCCCCCC)OC(=O)CCCN(C)C (stereo not drawn) [Compound 123] | >4.00E+10 |
| CCCCCCCCCOC(=O)C(C)(C)CCCCCCC(CCCCCCC(C)(C)C(=O)OCC(CCCCC)CCCCCCC)OC(=O)CCCN(C)C (stereo not drawn) [Compound 125] | 1.99E+10 |
| CCCCCCCCCOC(=O)C(C)(C)CCCCCCC(CCCCCCC(C)(C)C(=O)OCC(CCCCC)CCCCCCC)OC(=O)CCCCN(C)C (stereo not drawn) [Compound 126] | 1.77E+10 |
| CCCCCCC(CCCCCC)CCOC(=O)CCC(C)(C)CCCC(CCCC(C)(C)CCC(=O)OCCC(CCCCCC)CCCCCC)OC(=O)CCCN(C)C [Compound 128] | 1.00E+10 |
| CCCCCCCC(CCCCCCC)COC(=O)CCC(C)(C)CCCC(CCCC(C)(C)CCC(=O)OCC(CCCCCCC)CCCCCCC)OC(=O)CCCN(C)C [Compound 129] | 7.82E+09 |
| CCCCCCCCCOC(=O)CCCCCCC(CCCCCCC(=O)OCCCCCCCCC)OC(=O)CCCN(C)C [Compound 130] | 4.45E+07 |
| CCCCCCCCCOC(=O)CCCCCCC(CCCCCCC(=O)OCC(CCCCC)CCCCCCC)OC(=O)CCCN(C)C (stereo not drawn) [Compound 131] | 1.57E+09 |
